Measurements published in PMC8464809, “Anticancer and Structure Activity Relationship of Non-Symmetrical Choline Kinase Inhibitors” (Pharmaceutics, 2021).

Columns and labels:
[1] = biological target: T1, human ChoKα1 (Homo sapiens, UniProt P35790); assay: Inhibition of purified ChoKα1: incorporation of 14C from [methyl-14C]choline into phosphocholine; assay type: biochemical; conditions: purified ChoKα1, 1 mM choline, 10 mM ATP, 37 °C, 10 min; read-out: IC50 hChoKα1
T1 construct: made in house
Method: The effect of compounds 3a–h and 4a–h on ChoKα1 was assayed in purified ChoKα1 as previously described, by determining the rate of incorporation of ^14C from [methyl-^14C]choline into phosphocholine, both in the absence (control) or presence of different inhibitor concentrations. Briefly, 20 ng of purified ChoKα1 were incubated with 1 mM [methyl-^14C]choline (4500 dpm/nmol) in 100 mM Tris-HCl (pH 8.5), 10 mM MgCl2, 10 mM ATP, and incubated at 37 °C for 10 min. The reaction was stopped by immersing the reaction tubes in boiling water for 3 min. Aliquots of the reaction were applied to the origin of silica gel plates in the presence of phosphocholine (0.1 mg) and choline (0.1 mg) as carriers. The chromatography was developed in methanol/0.6% NaCl/28% NH4OH in water (50:50:5, v/v/v) as a solvent, and phosphocholine was visualized under exposure to iodine vapor. The corresponding spot was scraped and transferred to scintillation vials for measurement of radioactivity by a Beckman 6000-TA (Madrid, Spain) liquid-scintillation counter. The 50% inhibitory concentrations (IC50 value) were determined from the % activity of the enzyme at different concentrations of synthetic inhibitor using a sigmoidal dose-response curve (the ED50plus v1.0 software).

[2] = system: HT-29 cells; assay: Antiproliferative MTT assay, HT-29; assay type: cell-based; conditions: Homo sapiens, 72 h
Method: (§1) Human cervix carcinoma (HeLa) and human breast cancer (MCF-7) were grown in the DMEM medium (Gibco, Milan, Italy). B-acute lymphoblastic leukemia (RS4;11), T-acute lymphoblastic leukemia (CCRF-CEM and Jurkat), human promyelocytic cells (HL-60), and human colon adenocarcinoma (HT-29) cells were grown in RPMI medium (Gibco, Milan, Italy). Both media were supplemented with 115 units/mL of penicillin G (Gibco, Milan, Italy), 115 μg/mL of streptomycin (Invitrogen, Milan, Italy), and 10% FBS (Invitrogen, Milan, Italy). Cell lines were tested for mycoplasma contamination every 6 months by the RT-PCR analysis. Stock solutions (10 mM) of the different compounds were obtained by dissolving them in DMSO. Individual wells of 96-well tissue-culture microtiter plates were inoculated with 100 μL of complete medium containing 5 × 10^3 adherent cells or 25 × 10^3 leukemia cells. The plates were incubated at 37 °C in a humidified 5% CO2 incubator for 18 h prior to the experiments. After medium removal, 100 μL of fresh medium containing the test compound at different concentrations was added to each well and incubated at 37 °C for 72 h.

[3] = system: HeLa cells; assay: Antiproliferative MTT assay, HeLa; assay type: cell-based; conditions: Homo sapiens, 72 h
Method: as §1

[4] = system: MCF-7 cells; assay: Antiproliferative MTT assay, MCF-7; assay type: cell-based; conditions: Homo sapiens, MCF7, 72 h
Method: as §1

[5] = system: CCRF-CEM cells; assay: Antiproliferative MTT assay, CCRF-CEM; assay type: cell-based; conditions: Homo sapiens, 72 h
Method: as §1

[6] = system: HL-60 cells; assay: Antiproliferative MTT assay, HL-60; assay type: cell-based, human; conditions: for GI50: Homo sapiens, HL-60, 72 h, MTT
Method: as §1

[7] = system: RS4;11 cells; assay: Antiproliferative MTT assay, RS4;11; assay type: cell-based; conditions: Homo sapiens, 72 h
Method: as §1

[8] = Cytotoxicity in resting peripheral blood lymphocytes (MTT); assay type: cell-based; conditions: human, PBL not stimulated with PHA, healthy donors, read-out: GI50 PBLresting
Method: (§2) Additional experiments were conducted with peripheral blood lymphocytes (PBL) from healthy donors obtained as described previously. For cytotoxicity evaluations in proliferating PBL cultures, non-adherent cells were resuspended at 5 × 10^5 cells/mL in a growth medium containing 2.5 µg/mL PHA (Irvine Scientific). Different concentrations of the test compounds were added, and viability was determined 72 h later by the MTT test. For cytotoxicity evaluations in resting PBL cultures, non-adherent cells were resuspended (5 × 10^5 cells/mL) and treated for 72 h with the test compounds, as described above.

[9] = Cytotoxicity in PHA-stimulated peripheral blood lymphocytes (MTT); assay type: cell-based; conditions: human, PBL stimulated with PHA, healthy donors, read-out: GI50 PBLPHA
Method: as §2

[10] = system: Jurkat cells; assay: Apoptosis by annexin-V/PI flow cytometry; assay type: cell-based, human; conditions: after 24 h of treatment, concentration dependent
Method: Jurkat cells were treated with the test compounds and after different times stained with both PI, to stain DNA, and annexin V-fluorescein isothiocyanate, to stain membrane PS exposed on the cell surface, following the instructions of the manufacturer (Roche Diagnostics) of the Annexin-V-Fluos reagent.

[11] = system: HT-29, HeLa, MCF-7, CCRF-CEM, HL-60, and RS4;11cells; assay: Antiproliferative MTT assay, panel of six human tumor cell lines; assay type: cell-based; conditions: HL-60, RS4;11, 72 h
Method: as §1

[12] = system: choline uptake in HepG2 cells; assay: Choline uptake assay; assay type: cell-based; conditions: Homo sapiens, 10 min preincubation with the compound
Method: Choline uptake was determined as previously reported. Briefly, HepG2 cells (200,000 cells/well) were incubated for 10 min at 37 °C either in a medium containing different concentrations of ChoKα1 inhibitors or only with the medium as controls. The medium was then removed and the cells were immediately exposed to a medium containing [methyl-^14C]choline (16 μM, 31 Ci/mol) for 10 min at 37 °C. The incorporation of choline was stopped by medium aspiration followed by two washes with ice-cold PBS containing 580 μM choline. The cells were solubilized in NaOH 0.1 N and an aliquot was used to determine the total amount of radiolabel taken up by the cells.

T1 sequence (P35790 whole entry): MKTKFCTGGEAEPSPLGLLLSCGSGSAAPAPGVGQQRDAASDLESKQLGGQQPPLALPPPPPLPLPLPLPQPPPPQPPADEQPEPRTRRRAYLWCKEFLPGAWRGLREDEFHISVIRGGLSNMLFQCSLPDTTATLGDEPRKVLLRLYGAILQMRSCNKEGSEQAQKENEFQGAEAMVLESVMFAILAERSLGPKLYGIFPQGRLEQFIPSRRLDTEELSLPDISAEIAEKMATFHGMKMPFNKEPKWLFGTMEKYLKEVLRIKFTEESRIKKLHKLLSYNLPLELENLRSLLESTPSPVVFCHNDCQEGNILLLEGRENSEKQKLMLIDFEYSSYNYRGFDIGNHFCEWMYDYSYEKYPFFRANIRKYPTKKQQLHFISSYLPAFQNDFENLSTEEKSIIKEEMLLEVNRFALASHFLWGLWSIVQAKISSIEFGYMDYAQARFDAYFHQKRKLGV

IC50 [1] [µM]	GI50 [2] [µM]	GI50 [3] [µM]	GI50 [4] [µM]	GI50 [5] [µM]	GI50 [6] [µM]	GI50 [7] [µM]	GI50 values, range over six cell lines [11] [nM]	SMILES	fold more potent than MN-48b ([6]; against HL-60 leukemic cells, MN-48b ref 23) [fold]	GI50 at 72 h [8] [µM]	GI50 at 72 h [9] [µM]	apoptotic cells (annexin-V/PI) [10]	IC50 [12] [µM]
2.82 ± 0.16	23.8 ± 8.2	12.4 ± 1.8	6.7 ± 1.5	8.4 ± 1.6	4 ± 0.9	31 ± 2.6	–	CN(C)c1cc[n+](Cc2ccc(CNc3cccc(O)c3)cc2)cc1 [Compound 4e]	–	–	–	–	–
–	3.6 ± 1.4	0.7 ± 0.1	2.2 ± 1	0.16 ± 0.034	0.37 ± 0.079	0.5 ± 0.08	–	CN(C)c1cc[n+](Cc2ccc(CCCCc3ccc(CNc4cccc(O)c4)cc3)cc2)cc1 [Compound 4h]	–	–	–	–	–
3.66 ± 0.11	5.2 ± 1.7	1.7 ± 0.2	2.4 ± 0.2	0.7 ± 0.1	0.25 ± 0.066	1.1 ± 0.3	–	CN(C)c1cc[n+](Cc2ccc(CCc3ccc(CNc4cccc(O)c4)cc3)cc2)cc1 [Compound 4g]	–	–	–	–	–
3.36 ± 0.17	5.8 ± 1.9	0.39 ± 0.12	2.8 ± 0.5	0.086 ± 0.03	0.33 ± 0.074	0.71 ± 0.16	–	Oc1cccc(NCc2ccc(CCCCc3ccc(C[n+]4ccc(N5CCCC5)cc4)cc3)cc2)c1 [Compound 4d]	–	–	–	–	–
–	13.2 ± 5	3.6 ± 0.4	5 ± 1	1.1 ± 0.4	1.3 ± 0.4	3.7 ± 0.4	–	CN(C)c1cc[n+](Cc2ccc(-c3ccc(CNc4cccc(O)c4)cc3)cc2)cc1 [Compound 4f]	–	7.6 ± 1.1	3.6 ± 0.8	significant increase of apoptotic cells	3.5 ± 0.07

More lines, now with the values behind:

SMILES	IC50 [1] [µM]	GI50 [2] [µM]	GI50 [3] [µM]	GI50 [4] [µM]	GI50 [5] [µM]	GI50 [6] [µM]	GI50 [7] [µM]	GI50 values, range over six cell lines [11] [nM]	fold more potent than MN-48b ([6]; against HL-60 leukemic cells, MN-48b ref 23) [fold]	GI50 at 72 h [8] [µM]	GI50 at 72 h [9] [µM]	apoptotic cells (annexin-V/PI) [10]	IC50 [12] [µM]
Oc1cccc(NCc2ccc(-c3ccc(C[n+]4ccc(N5CCCC5)cc4)cc3)cc2)c1 [Compound 4b]	3.85 ± 0.1	6.6 ± 2.3	2.1 ± 0.4	4.4 ± 0.5	0.5 ± 0.1	1.1 ± 0.3	2.8 ± 0.6	–	–	–	–	–	–
Nc1cccc(OCc2ccc(CCc3ccc(C[n+]4ccc(N5CCCC5)cc4)cc3)cc2)c1 [Compound 3c]	8.56 ± 0.94	0.63 ± 0.14	0.068 ± 0.028	0.3 ± 0.1	0.03 ± 0.003	0.011 ± 0.005	0.15 ± 0.012	630 to 11	30	> 10	> 10	significant increase of apoptotic cells	–
CN(C)c1cc[n+](Cc2ccc(-c3ccc(COc4cccc(N)c4)cc3)cc2)cc1 [Compound 3f]	6.39 ± 0.46	4.4 ± 0.7	4.2 ± 0.5	7.6 ± 1.6	0.54 ± 0.21	2.4 ± 0.7	2 ± 0.5	–	–	–	–	–	–
CN(C)c1cc[n+](Cc2ccc(COc3cccc(N)c3)cc2)cc1 [Compound 3e]	6.33 ± 0.8	26.1 ± 6.7	8.2 ± 2.4	23.6 ± 5.1	1.2 ± 0.5	38.7 ± 6.2	53.6 ± 13.4	–	–	–	–	–	–
Oc1cccc(NCc2ccc(CCc3ccc(C[n+]4ccc(N5CCCC5)cc4)cc3)cc2)c1 [Compound 4c]	3.83 ± 0.91	5.3 ± 2.1	0.86 ± 0.26	1.7 ± 0.4	0.14 ± 0.03	0.065 ± 0.023	0.46 ± 0.061	–	–	–	–	–	–
CN(C)c1cc[n+](Cc2ccc(CCc3ccc(COc4cccc(N)c4)cc3)cc2)cc1 [Compound 3g]	4.29 ± 0.12	2.2 ± 0.9	1.2 ± 0.2	4.3 ± 0.9	0.4 ± 0.26	1.6 ± 0.9	2.6 ± 0.2	–	–	–	–	–	–
CN(C)c1cc[n+](Cc2ccc(CCCCc3ccc(COc4cccc(N)c4)cc3)cc2)cc1 [Compound 3h]	7.01 ± 0.13	–	–	–	–	–	–	–	–	–	–	–	–
Nc1cccc(OCc2ccc(-c3ccc(C[n+]4ccc(N5CCCC5)cc4)cc3)cc2)c1 [Compound 3b]	17.5 ± 1.24	–	–	–	–	–	–	–	–	–	–	–	–
Nc1cccc(OCc2ccc(C[n+]3ccc(N4CCCC4)cc3)cc2)c1 [Compound 3a]	> 50	36 ± 7.4	4.8 ± 0.58	22.8 ± 4.3	3.4 ± 0.7	4.8 ± 0.4	16.8 ± 4.8	–	–	–	–	–	–
Nc1cccc(OCc2ccc(CCCCc3ccc(C[n+]4ccc(N5CCCC5)cc4)cc3)cc2)c1 [Compound 3d]	6.79 ± 0.47	0.58 ± 0.17	0.16 ± 0.048	0.5 ± 0.2	0.015 ± 0.005	0.12 ± 0.091	0.29 ± 0.053	–	–	–	–	–	15.8 ± 0.24
Oc1cccc(NCc2ccc(C[n+]3ccc(N4CCCC4)cc3)cc2)c1 [Compound 4a]	3.34 ± 0.34	49.7 ± 11.4	12.8 ± 2.6	17.8 ± 5.3	7.3 ± 2.5	4.1 ± 1.2	24.5 ± 2.9	–	–	–	–	–	–
